Experimental findings from patent publication US20120288509A1, “ANALYSIS OF METHYLATED NUCLEIC ACID” (priority 2004, published 2012) are described below.

The structures appear in SMILES notation.

The subject of the assay is SW48 cells. The experiment in a line: 5-Aza-dC treatment and RT-PCR: reactivation of silenced genes in SW48 cells. The settings on record: SW48 colon cancer cells, 5 μM 5-Aza-dC for 4 days, subset of candidate genes, versus untreated cells. Type of assay: cell-based. From the text: FIG. 3: Validation of novel targets for aberrant methylation in colon cancer. A. Primers for PCR were designed for positive clones identified in the microarray analysis as hypermethylated in SW48 cells. DNA methylation was controlled by Single-gene PCR on enriched methylated samples prepared from WI38 primary fibroblasts and SW48 colon cancer cells according to the method described above. IN=input genomic DNA, M=enriched methylated DNA. As a separate control the inventors analyzed samples prepared from matched normal colon (N) and colon tumor (T) from three patients. MLH1 and RASSF1A have previously been described to be aberrantly methylated in SW48 cells and in some colon tumors. The imprinted H19 ICR sequence serves as a positive control for methylation. B. Control of methylation status by methylation-sensitive restriction. Genomic DNA was either digested with the methylation-sensitive HpaII enzyme or undigested and used as a PCR template with primers spanning a HpaII-containing PCR fragments in three randomly selected positive clones (top) and negative clones (bottom). The number of HpaII sites within the PCR amplicon is indicated in parenthesis. Presence of a PCR product after HpaII digest reflects DNA methylation in the sample and in each case confirms the above described enrichment analysis. C. Reactivation of silenced genes in SW48 cells by 5-Aza-dC treatment. […]

For `Nc1ncn([C@H]2C[C@H](O)[C@@H](CO)O2)c(=O)n1` [5-Aza-dC], the “transcription of silenced (methylated) genes by RT-PCR after treatment with the demethylating agent” value is “derepression”.
